{"source": "patent US7507727B2", "about": "“Substituted quinobenzoxazine analogs and methods of using thereof” (Cylene Pharmaceuticals, Inc., priority 2003, dated 2009)", "key": {"[1]": {"system": "Chinese Hamster Ovary Cells (CHO)", "assay": "In vitro chromosome aberration assay (incl. mitotic index)", "type": "cell-based", "settings": "for % MI 3 HRS + S9 / % MI 20 HRS / % MI: average mitotic index; for % MI: first column (time not given)"}, "[2]": {"system": "native quadruplex structures that regulate different oncogenes", "assay": "Quadrome footprints", "type": "binding", "settings": "FIG. 4", "from_the_text": "Quadrome Footprints. Compounds may be evaluated for their ability to bind to other native quadruplex structures of biological relevance, including quadruplex control elements that regulate a range of different oncogenes."}, "[3]": {"system": "phosphorylated p53 [pS15]", "assay": "Phosphorylated p53 ELISA in HCT-116 cells", "type": "cell-based", "settings": "24 hr, 1-5 uM", "method": "The protocol for this assay is described as follows. On Day 1, cells were seeded at 2×10^6 cells/10 cm dish/10 mL medium. On day two, cells were treated as follows: control=0.05% DMSO (5 μl DMSO stock/10 ml medium); 1 μM CX3543 (1 μl Stock (10 mM)/10 ml medium); 2 μM CX3543 (2 μl Stock (10 mM)/10 ml medium); 3 μM CX3543 (3 μl Stock (10 mM)/10 ml medium); 4 μM CX3543 (4 μl Stock (10 mM)/10 ml medium) and 5 μM CX3543 (5 μl Stock (10 mM)/10 ml medium).\nOn Day 3, cells were harvested and attached and floating cells were collected. Cells were washed twice with PBS, counted and collected at 4×10^6 cells/sample. The cell pellet was frozen at −80° C. until further use. […]\nTest Procedure. […] After washing, the plate is inverted and tapped dry on absorbance tissue. […]\nWash wells with 400 μl working wash buffer four times. […] After washing, the plate is inverted and tapped try on absorbance tissue. […] After washing, the plate is inverted and tapped try on absorbance tissue. […] Read the plate at A450 nm by setting chromogen blank (=100 μl TMB+100 μl Stop soln) as blank. Read absorbance within 2 hours of assay completion."}, "[4]": {"system": "Escherichia coli (WP2-uvrA−)", "assay": "Bacterial mutagenicity test (Ames assay)", "settings": "E. coli WP2-uvrA−, with and without S9", "method": "The test article was dissolved in 5% dextrose.\nThe pH was then adjusted to 3.53.\n94720. […] (ATCC numbers: 29629 and 49979, respectively).\nGenotype tests were performed.\nBoth endpoints serve as toxicity indicators in this assay."}, "[5]": {"system": "panel of cancer cell-lines", "assay": "MTS cell survival assay, panel of cancer cell-lines", "type": "cell-based", "settings": "for IC50: MTS", "method": "The antitumor range of action of CX-3543 was tested in vitro using a panel of cancer cell-lines and evaluated using an MTS cell survival assay. Cells were exposed to CX3543 at various concentrations over a four day period, and IC50 values were calculated. Generally, 2,000 to 5,000 cells were seeded in each well of a 96-well plate and incubated overnight. A serial dilution of testing compounds was added to cells and further incubated for 4 days at 37° C., in a 5% CO2 humidified incubator. The survival cell numbers were evaluated by the MTS method as described in the manufacturer's protocol (Promega). […] In particular examples, IC50 values were measured by Alamar Blue."}}, "data": [{"smiles": "CN1CCCC1CCNC(=O)c1cn2c3c(c(N4CCC(c5cnccn5)C4)c(F)cc3c1=O)Oc1cc3ccccc3cc1-2", "note": "(stereo not drawn) [CX-3543]", "values": [{"measurement": "% CA 3 HRS", "setting": "[1]; CHO, 0.0016 mg/mL", "result": 6.0, "unit": "%"}, {"measurement": "FI 3 HRS", "setting": "[1]; CHO, 0.0016 mg/mL", "result": 2.0}, {"measurement": "% CA 3 HRS + S9", "setting": "[1]; CHO, 0.0016 mg/mL", "result": 4.5, "unit": "%"}, {"measurement": "FI 3 HRS + S9", "setting": "[1]; CHO, 0.0016 mg/mL", "result": 1.5}, {"measurement": "% CA 20 HRS", "setting": "[1]; CHO, 0.0016 mg/mL", "result": 4.5, "unit": "%"}, {"measurement": "FI 20 HRS", "setting": "[1]; CHO, 0.0016 mg/mL", "result": 1.5}, {"measurement": "% CA 3 HRS", "setting": "[1]; CHO, 0.005 mg/mL", "result": 5.5, "unit": "%"}, {"measurement": "FI 3 HRS", "setting": "[1]; CHO, 0.005 mg/mL", "result": 1.8}, {"measurement": "% CA 3 HRS + S9", "setting": "[1]; CHO, 0.005 mg/mL", "result": 8.4, "unit": "%"}, {"measurement": "FI 3 HRS + S9", "setting": "[1]; CHO, 0.005 mg/mL", "result": 2.8}, {"measurement": "% CA 20 HRS", "setting": "[1]; CHO, 0.005 mg/mL", "result": 5.0, "unit": "%"}, {"measurement": "FI 20 HRS", "setting": "[1]; CHO, 0.005 mg/mL", "result": 1.7}, {"measurement": "% CA 3 HRS + S9", "setting": "[1]; CHO, 0.016 mg/mL", "result": 9.0, "unit": "%"}, {"measurement": "FI 3 HRS + S9", "setting": "[1]; CHO, 0.016 mg/mL", "result": 2.0}, {"measurement": "mutagenicity (chromosome aberrations)", "setting": "[1]; CHO, 3 h, 3 h + S9, 20 h", "result": "not mutagenic"}, {"measurement": "% MI 3 HRS + S9", "setting": "[1]; 0.0016 mg/mL", "result": 12, "unit": "%"}, {"measurement": "% MI 20 HRS", "setting": "[1]; 0.0016 mg/mL", "result": 8, "unit": "%"}, {"measurement": "% MI", "setting": "[1]; 0.0016 mg/mL", "result": 6, "unit": "%"}, {"measurement": "% MI 3 HRS + S9", "setting": "[1]; 0.005 mg/mL", "result": 9, "unit": "%"}, {"measurement": "% MI 20 HRS", "setting": "[1]; 0.005 mg/mL", "result": 4, "unit": "%"}, {"measurement": "% MI", "setting": "[1]; 0.005 mg/mL", "result": 8, "unit": "%"}, {"measurement": "% MI 3 HRS + S9", "setting": "[1]; 0.016 mg/mL", "result": 1, "unit": "%"}, {"measurement": "% MI 20 HRS", "setting": "[1]; 0.016 mg/mL", "result": 0, "unit": "%"}, {"measurement": "% MI", "setting": "[1]; 0.016 mg/mL", "result": 1, "unit": "%"}, {"measurement": "% MI 3 HRS + S9", "setting": "[1]; 0.05 mg/mL", "result": 0, "unit": "%"}, {"measurement": "% MI 20 HRS", "setting": "[1]; 0.05 mg/mL", "result": 0, "unit": "%"}, {"measurement": "% MI", "setting": "[1]; 0.05 mg/mL", "result": 0, "unit": "%"}, {"measurement": "% MI 3 HRS + S9", "setting": "[1]; 0.16 mg/mL", "result": 0, "unit": "%"}, {"measurement": "% MI 20 HRS", "setting": "[1]; 0.16 mg/mL", "result": 1, "unit": "%"}, {"measurement": "% MI", "setting": "[1]; 0.16 mg/mL", "result": 0, "unit": "%"}, {"measurement": "% MI 3 HRS + S9", "setting": "[1]; 0.5 mg/mL", "result": 0, "unit": "%"}, {"measurement": "% MI 20 HRS", "setting": "[1]; 0.5 mg/mL", "result": 0, "unit": "%"}, {"measurement": "% MI", "setting": "[1]; 0.5 mg/mL", "result": 0, "unit": "%"}, {"measurement": "selectivity footprint by oncogene", "setting": "[2]", "result": "selectively binds to those quadruplexes that are capable of adopting the chair/propeller conformation"}, {"measurement": "population of phosphorylated p53", "setting": "[3]", "result": "enhanced"}, {"measurement": "mutagenicity (reversion rates)", "setting": "[4]", "result": "non-mutagenic"}, {"measurement": "IC50", "setting": "[5]; 96 h, PC3 (Prostate), 4 days", "result": 3200, "unit": "nM"}, {"measurement": "IC50", "setting": "[5]; Homo sapiens, 786-0, 96 h, 786-O, 4 days", "result": 2100, "unit": "nM"}, {"measurement": "IC50", "setting": "[5]; Homo sapiens, 96 h, A549, 4 days", "result": 2900, "unit": "nM"}, {"measurement": "IC50", "setting": "[5]; Homo sapiens, 96 h, HCT-116 (Colorectal), 4 days", "result": 3300, "unit": "nM"}, {"measurement": "IC50", "setting": "[5]; Homo sapiens, 96 h, HT-29, 4 days", "result": 5500, "unit": "nM"}, {"measurement": "IC50", "setting": "[5]; Homo sapiens, 96 h, HeLa (cervical), 4 days", "result": 3300, "unit": "nM"}, {"measurement": "IC50", "setting": "[5]; Homo sapiens, 96 h, HepG2, 4 days", "result": 2500, "unit": "nM"}, {"measurement": "IC50", "setting": "[5]; Homo sapiens, 96 h, MDA-MB-231 (Breast), 4 days", "result": 2400, "unit": "nM"}, {"measurement": "IC50", "setting": "[5]; Homo sapiens, 96 h, MDA-MB-468 (Breast), 4 days", "result": 1500, "unit": "nM"}, {"measurement": "IC50", "setting": "[5]; Homo sapiens, 96 h, Ramos (Burkitt's Lymphoma), 4 days", "result": 300, "unit": "nM"}, {"measurement": "IC50", "setting": "[5]; Homo sapiens, MIA PaCa-2, 96 h, MiaPaca, 4 days", "result": 2800, "unit": "nM"}, {"measurement": "IC50 in MTS assays over a broad range of tumor types", "setting": "[5]; four day exposure", "result": "submicromolar to single digit micromolar"}]}]}
